Results on 1 compound are retold here after PMC5447021, “TNF Lectin-Like Domain Restores Epithelial Sodium Channel Function in Frameshift Mutants Associated with Pseudohypoaldosteronism Type 1B” (Frontiers in Immunology, 2017).

“Also recorded” adds a separate entry of the source.

Assay [1] concerns pulmonary edema. To be noted: acute hypobaric hypoxia and exercise; cited from earlier work. An excerpt:
(§1) Like TNF, TIP peptide can influence regulation of alveolar fluid balance.

In assay [2] the test system is rat lung transplantation. The conditions noted are these: instilled intratracheally into rats prior to lung transplantation; cited from earlier work.
From the text: as §1

Assay [3] has as its system flooded rat lung. The conditions noted are these: in situ and in vivo; cited from earlier work.
From the text: as §1

The subject of assay [4] is α-ENaC frameshift PHA1B mutants. The assay can be described thus: Whole-cell patch clamp, all α-ENaC PHA1B frameshift mutants + WT βγ. The conditions noted are these: for Restoration of current by solnatide (words): all 10 frameshift mutants, 200 nM solnatide (Figure 4B), n = 3–11. The assay is classed as cell-based, human. How it is done: Point mutations of α-, β-, γ- and δ-hENaC and PHA1B frameshift mutations of α-hENaC were prepared with the QuikChange Lightning Site-Directed Mutagenesis Kit (Agilent Technologies, CA, USA). Mutagenic primers were designed individually with the Primer Design Program provided on the producer’s website or for the frameshift mutations the same base changes as reported in patients (see Table 2) were performed. Primers were ordered from Sigma-Aldrich, Vienna, Austria.
HEK-293 cells were transfected 1 day after cell seeding using X-tremeGENE HP DNA transfection reagent (Roche Diagnostics, Mannheim, Germany) according to the manufacturer’s protocol. A set of WT or mutant αβγ- or δβγ-hENaC, or α-, β-, γ-, or δ-hENaC alone was used, and the ratio of DNA to transfection reagent was 1:3. The expression was highest 48–72 h after transfection.
Electrophysiological experiments were performed as described in detail by Shabbir et al. ([16]). […] Currents were recorded with the patch clamp method in the whole-cell mode. The chamber contained 1 ml of the bath solution of the following composition (in mM): 145 NaCl, 2.7 KCl, 1.8 CaCl2, 2 MgCl2, 5.5 glucose, and 10 HEPES, adjusted to pH 7.4 with 1 M NaOH solution. Micropipettes were pulled from thin-walled borosilicate glass capillaries (Harvard Apparatus, Holliston, MA, USA) with a DMZ Zeitz Puller to obtain electrode resistances ranging from 2 to 5 MΩ. The pipette solution contained (in millimolars): 135 potassium methane sulfonate, 10 KCl, 6 NaCl, 1 Mg2ATP, 2 Na3ATP, 10 HEPES, and 0.5 EGTA, adjusted to pH 7.2 with 1 M KOH solution. Chemicals for pipette and bathing solutions were supplied by Sigma-Aldrich (Vienna, Austria). Electrophysiological measurements were carried out with an Axopatch 200B patch clamp amplifier (Axon Instruments, CA, USA). Capacity transients were canceled, and series resistance was compensated. Whole-cell currents were filtered at 5 kHz and sampled at 10 kHz. Data acquisition and storage were processed directly to a PC equipped with pCLAMP 10.2 software (Axon Instruments, CA, USA). […]

Assay [5] deals with A549 and H441 cells or HEK-293 cells heterologously expressing human ENaC. The arrangement: method as in PMID 24077967, PMID 25029038. The conditions noted are these: cited from earlier work.
The subject of assay [6] is αP197fs. As to the kind of experiment: Membrane abundance of αP197fs. The conditions noted are these: 200 nM, relative to WT control (=1), own control 1.18 ± 0.05, p < 0.01 vs control. The class given is cell-based, human. How it is done:
Cell surface biotinylation was performed as previously described ([26]). In brief, A549 cells or transiently transfected HEK-293 cells were grown in 10 cm dishes in 37°C, 5% CO2 incubator in DMEM medium supplemented with 5% FBS. […] Medium was aspirated, and then cells were washed twice with 10 ml ice-cold phosphate-buffered saline (PBS), covered with 2.5 mg EZ-Link Sulfo-NHS-SS-Biotin (Thermo Scientific, Rockford, USA), dissolved in 10 ml ice-cold PBS, and incubated at 4°C with gentle agitation for 30 min. Fifty milliliters of quenching solution were added to cells; then cells were scraped in solution and transferred to fresh 50 ml tube. Cell suspension was centrifuged at 500 × g for 3 min. Supernatant was discarded, and 5 ml of Tris-buffered saline (TBS) was added to the cell pellet. The cell pellet was resuspended and centrifuged at 500 × g for 3 min. Supernatant was discarded and cell pellet was resuspended in lysis buffer containing protease inhibitor cocktail (10 µM pepstatin A, 10 µM phenylmethylsulfonyl fluoride, and 10 µM leupeptin) and transferred to fresh 1.5 ml centrifuge tube. Cell pellet was then homogenized on ice by ultrasonication using 1 s bursts and incubated on ice for at least 30 min. Intact cells and nuclei were pelleted by centrifugation at 10,000 × g for 2 min under cooling conditions. […] Exposed films were scanned and quantified using ImageJ (NIH, MD, USA). […]

For the compound `C[C@@H]1NC(=O)CNC(=O)[C@H](CCC(=O)O)NC(=O)[C@@H]2CCCN2C(=O)[C@H]([C@@H](C)O)NC(=O)[C@H](CCC(=O)O)NC(=O)[C@H](CCCNC(=N)N)NC(=O)[C@H](CCC(N)=O)NC(=O)CNC(=O)[C@@H](N)CSSC[C@@H](C(=O)O)NC(=O)[C@H](Cc2ccc(O)cc2)NC(=O)[C@H](Cc2c[nH]c3ccccc23)NC(=O)[C@@H]2CCCN2C(=O)[C@H](CCCCN)NC(=O)[C@H](C)NC(=O)[C@H](CCC(=O)O)NC1=O` [solnatide, L-cysteine, L-cysteinylglycyl-L-glutaminyl-L-arginyl-L-α-glutamyl-L-threonyl-L-prolyl-L-α-glutamylglycyl-L-alanyl-L-α-glutamyl-L-alanyl-L-lysyl-L-prolyl-L-tryptophyl-L-tyrosyl-, cyclic (1→17)-disulfide], the “Therapeutic activity” value in assay [1] is “profound therapeutic activity”. Also, in assay [2], the “Lung function” value is “significantly improved lung function”. Besides, the “Alveolar fluid reabsorption” value in assay [3] is “activate fluid reabsorption in in situ and in vivo flooded rat lung models”. The “Restoration of current by solnatide (words)” value is on record as “up to or even higher than WT control current in absence of solnatide; also recorded: restored the amiloride-sensitive current in all these frameshift mutants to WT or higher levels” in assay [4] and “restored function in α-ENaC frameshift mutants to current density levels of wild type ENaC or higher” in assay [4] (listed as Solnatide). Further, the “Concentration at which maximum current activation was reached” value in assay [4] (solnatide, frameshift mutants, HEK-293) is 200 nM. Also, in assay [5], the “Na^+ current-enhancing effect after PNGase F” value is reported as “Elimination of the Na^+ current-enhancing effect”. Besides, the “Membrane abundance, solnatide 5 min” value in assay [6] is recorded as 1.33 ± 0.07.
